{"source": "paper PMC3395435", "about": "(Biopolymers, 2012)", "key": {"Swiss Webster mice [1]": {"tested_on": "Swiss Webster mice", "settings": "mouse, in vivo; cited from earlier work"}, "rat vas deferens": {"tested_on": "rat vas deferens", "settings": "cited from earlier work"}, "[2]": {"assay_type": "physicochemical", "settings": "pH 7.5"}, "Swiss Webster mice [3]": {"tested_on": "Swiss Webster mice", "settings": "mouse, in vivo"}}}
{"substance": "ω-conotoxin GVIA", "values": [{"measurement": "duration of shaking syndrome, previous work", "setting": "Swiss Webster mice [1]", "value": "maintained for a long time in a dose-dependent manner"}, {"measurement": "shaking syndrome, previous work", "setting": "Swiss Webster mice [1]", "value": "induce shaking syndrome in mice"}, {"measurement": "Biological activity (twitch responses)", "setting": "rat vas deferens", "value": 10, "unit": "nM"}, {"measurement": "natively folded peptide retained at the steady state", "setting": "[2]", "value": "about 60%"}, {"measurement": "duration of shaking syndrome", "setting": "Swiss Webster mice [3]", "value": "maintained for a long time"}, {"measurement": "shaking syndrome (persistent body tremor)", "setting": "Swiss Webster mice [3]", "value": "exhibited the shaking syndrome"}]}
